The results in this text go back to ChEMBL document CHEMBL1155962, “Dihydropyrazolopyrimidines containing benzimidazoles as K(V)1.5 potassium channel antagonists” (Bioorg Med Chem Lett, 2009).

The structures appear in SMILES notation. Calls of active or inactive are those of the source. No cut-off for these calls is given here.

For data set [1], the target named is T1, Potassium voltage-gated channel subfamily A member 5 (Homo sapiens, UniProt P22460). Briefly: Inhibition of human Kv1.5 channel expressed in mouse L929 cells. The data set is classed as cell-based.
T1 sequence (P22460 whole entry): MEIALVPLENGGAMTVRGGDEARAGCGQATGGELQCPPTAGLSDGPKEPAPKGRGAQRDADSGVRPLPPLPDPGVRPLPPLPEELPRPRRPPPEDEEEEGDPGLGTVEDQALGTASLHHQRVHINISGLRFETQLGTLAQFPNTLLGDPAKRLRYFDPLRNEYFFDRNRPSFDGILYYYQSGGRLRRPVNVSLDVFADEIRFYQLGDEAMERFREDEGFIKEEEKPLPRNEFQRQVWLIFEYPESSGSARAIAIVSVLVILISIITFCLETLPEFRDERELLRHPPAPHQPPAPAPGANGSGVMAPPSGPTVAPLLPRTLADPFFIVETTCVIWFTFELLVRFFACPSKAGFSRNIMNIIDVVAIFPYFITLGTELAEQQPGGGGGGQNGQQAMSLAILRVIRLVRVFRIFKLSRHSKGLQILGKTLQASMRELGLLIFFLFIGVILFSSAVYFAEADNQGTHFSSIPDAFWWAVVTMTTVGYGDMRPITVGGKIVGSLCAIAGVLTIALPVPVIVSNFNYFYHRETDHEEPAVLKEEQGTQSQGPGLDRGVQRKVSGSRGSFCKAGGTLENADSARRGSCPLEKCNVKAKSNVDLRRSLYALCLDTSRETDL
Data set [2] deals with hERG (KCNH2) (Homo sapiens, UniProt Q12809). The data set is described as follows: Inhibition of human ERG at 10 uM.
Sequence of hERG (KCNH2) (Q12809 whole entry): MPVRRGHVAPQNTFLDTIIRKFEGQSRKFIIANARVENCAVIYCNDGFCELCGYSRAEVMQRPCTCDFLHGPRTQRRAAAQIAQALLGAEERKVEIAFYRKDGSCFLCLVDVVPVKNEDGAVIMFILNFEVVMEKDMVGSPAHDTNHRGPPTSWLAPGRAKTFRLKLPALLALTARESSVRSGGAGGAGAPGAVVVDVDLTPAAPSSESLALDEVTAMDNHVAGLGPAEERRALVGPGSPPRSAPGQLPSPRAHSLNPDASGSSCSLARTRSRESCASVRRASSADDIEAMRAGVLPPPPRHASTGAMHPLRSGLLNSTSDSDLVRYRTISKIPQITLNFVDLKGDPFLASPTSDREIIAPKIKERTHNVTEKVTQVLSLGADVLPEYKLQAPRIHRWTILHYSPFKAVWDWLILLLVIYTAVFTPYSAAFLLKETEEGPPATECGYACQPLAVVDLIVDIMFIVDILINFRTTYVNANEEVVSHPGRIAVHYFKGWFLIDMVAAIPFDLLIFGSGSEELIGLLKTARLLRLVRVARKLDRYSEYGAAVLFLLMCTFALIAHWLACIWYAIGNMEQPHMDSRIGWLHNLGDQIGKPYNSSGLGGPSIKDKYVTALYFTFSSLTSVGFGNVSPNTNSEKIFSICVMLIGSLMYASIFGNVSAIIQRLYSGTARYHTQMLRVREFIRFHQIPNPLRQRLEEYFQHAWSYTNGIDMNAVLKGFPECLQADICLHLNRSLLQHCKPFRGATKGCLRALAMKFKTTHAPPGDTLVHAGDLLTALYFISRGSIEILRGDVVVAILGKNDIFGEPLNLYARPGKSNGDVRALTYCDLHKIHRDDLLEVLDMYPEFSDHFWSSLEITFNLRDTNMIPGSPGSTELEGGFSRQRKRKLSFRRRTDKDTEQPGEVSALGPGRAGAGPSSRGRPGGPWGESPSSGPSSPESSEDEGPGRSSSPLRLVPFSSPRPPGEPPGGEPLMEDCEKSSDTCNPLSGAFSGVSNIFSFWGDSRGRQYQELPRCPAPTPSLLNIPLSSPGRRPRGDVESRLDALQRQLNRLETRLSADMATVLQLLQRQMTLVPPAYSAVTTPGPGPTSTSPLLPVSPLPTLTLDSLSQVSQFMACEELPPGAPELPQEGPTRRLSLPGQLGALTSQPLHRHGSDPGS
Data set [3] in a line: Inhibition of sodium channel at 10 uM.
Data set [4] is described as follows: Oral bioavailability in rat at 20 umol/kg. The data set is classed as ADME, organism-based. The settings on record: in vivo.
Data set [5] can be described thus: Terminal half life in rat at 10 umol/kg, intra-arterial for 10 mins. The settings on record: in vivo, read-out: beta t1/2 (converted). Type of data set: ADME, organism-based.
The nature of data set [6]: Plasma clearance in rat at 10 umol/kg, intra-arterial for 10 mins. Type of data set: ADME, organism-based.
Data set [7] in a line: Volume of distribution at steady state in rat at 10 umol/kg, intra-arterial for 10 mins. Type of data set: ADME, organism-based. The conditions noted are these: in vivo, read-out: Vdss.
The species entered for data set [8] is Homo sapiens. The data set is described as follows: Selectivity for human Kv1.5 channel over human ERG.
Data set [9] can be described thus: Selectivity for human Kv1.5 channel over sodium channel.
Data set [10] is described as follows: Selectivity for human Kv1.5 channel over calcium channel.
The target of data set [11] is T1, Potassium voltage-gated channel subfamily A member 5. The data set is described as follows: Inhibition of human Kv1.5 channel expressed in mouse L929 cells at >1 uM. Type of data set: cell-based.
Data set [12] can be described thus: Inhibition of calcium channel at 10 uM.
The test system of data set [13] is Oryctolagus cuniculus. The data set is described as follows: Prolongation of effective refractory period in rabbit atrium at 3 mg/kg. The data set is classed as functional, Cardiac atrium.
The test system of data set [14] is Oryctolagus cuniculus. Briefly: Prolongation of effective refractory period in rabbit ventricle at 0.3 to 10 mg/kg. Type of data set: functional, organism-based.

In data set [1], `CC1=C(c2nc3cccc(C)c3n2C)C(c2ccc(Cl)c(Cl)c2)n2nccc2N1` (stereo not drawn) returned an IC50 of 110 nM.

As to `CC1=C(c2nc3cc(F)ccc3n2C)C(c2ccc(Cl)c(Cl)c2)n2nccc2N1` (stereo not drawn), the IC50 in [1] came to 15 nM. In data set [2], this compound registered an inhibition at 10 µM of 83%. In data set [3], this compound displayed an inhibition of 37%. Further, the bioavailability in data set [4] was 51%. The half-life in [5] was 0.57 h. The compound further came in with a clearance in data set [6] of 35 mL/min/kg. The Vd in data set [7] is 1.6 L/kg. For the same compound, the Selectivity ratio in data set [8], in [9] and in data set [10] was above 200 throughout.

In the case of `CC1=C(c2nc3cccc(Cl)c3n2C)C(c2ccc(Cl)c(Cl)c2)n2nccc2N1` (stereo not drawn), in [1], the IC50 came to 71 nM. That is a double-digit nanomolar value.

The compound `CC1=C(c2nc3cc(S(=O)(=O)Nc4ccccc4)ccc3n2C)C(c2ccc(Cl)c(Cl)c2)n2nccc2N1` (stereo not drawn) displayed an IC50 in data set [1] above 1000 nM. Further, the inhibition in data set [11] amounted to 30%.

The compound `CC1=C(c2nc3ccccc3s2)C(c2ccc(Cl)c(Cl)c2)n2nccc2N1` (stereo not drawn) gave an IC50 in data set [1] of 740 nM.

Compound `CCCCc1nnc(C2=C(C)Nc3ccnn3C2c2ccc(Cl)c(Cl)c2)o1` (stereo not drawn) yielded an IC50 in data set [1] above 1000 nM. The compound further yielded an inhibition in data set [11] of 29%.

Compound `CC1=C(c2nc3cc(S(C)(=O)=O)ccc3n2C)C(c2ccc(Cl)c(Cl)c2)n2nccc2N1` (stereo not drawn) registered an IC50 in [1] above 1000 nM. Besides, the inhibition in data set [11] was 29%.

Consider `CC1=C(c2nc3cc(C(F)(F)F)ccc3n2C)C(c2ccc(Cl)c(Cl)c2)n2nccc2N1` (stereo not drawn), for which half-maximal inhibition in [1] (IC50) required 540 nM.

In turn, `CCn1c(C2=C(C)Nc3ccnn3C2c2ccc(Cl)c(Cl)c2)nc2cc(Cl)ccc21` (stereo not drawn) had an IC50 in data set [1] of 57 nM.

In turn, `CCCn1c(C2=C(C)Nc3ccnn3C2c2ccc(Cl)c(Cl)c2)nc2cc(F)ccc21` (stereo not drawn) returned an IC50 in [1] of 48 nM.

In turn, `CC1=C(c2nc3cccc(C)c3[nH]2)C(c2ccc(Cl)c(Cl)c2)n2nccc2N1` (stereo not drawn) yielded an IC50 in data set [1] of 150 nM.

In data set [1], `CC1=C(c2nc3c(F)cccc3n2C)C(c2ccc(Cl)c(Cl)c2)n2nccc2N1` (stereo not drawn) yielded an IC50 of 64 nM.

In turn, `CC1=C(c2nnc(-c3ccccc3)o2)C(c2ccc(Cl)c(Cl)c2)n2nccc2N1` (stereo not drawn) displayed an IC50 in [1] above 1000 nM. For the same compound, the inhibition in data set [11] was 18%.

For the compound `CC1=C(c2nc3cccc(F)c3n2C)C(c2ccc(Cl)c(Cl)c2)n2nccc2N1` (stereo not drawn), the IC50 in data set [1] came to 150 nM.

Turning to `CC1=C(c2nc3cc(C)ccc3n2C)C(c2ccc(Cl)c(Cl)c2)n2nccc2N1` (stereo not drawn), the IC50 in [1] amounted to 200 nM. The IC50 values of the last two compounds are within 1.5-fold of each other.

Turning to `CC1=C(c2nc3ccccc3[nH]2)C(c2ccc(Cl)c(Cl)c2)n2nccc2N1` (stereo not drawn), the IC50 in [1] worked out at 510 nM.

As for `CC1=C(c2nc3ccc(Cl)cc3n2C)C(c2ccc(Cl)c(Cl)c2)n2nccc2N1` (stereo not drawn), in [1], half-maximal inhibition (IC50) was put at 660 nM.

In the case of `CC1=C(c2nc3cc(Cl)ccc3n2C(C)C)C(c2ccc(Cl)c(Cl)c2)n2nccc2N1` (stereo not drawn), in data set [1], the IC50 amounted to 94 nM.

Compound `COC(=O)c1ccc2c(c1)nc(C1=C(C)Nc3ccnn3C1c1ccc(Cl)c(Cl)c1)n2C` (stereo not drawn) returned an IC50 in data set [1] of 200 nM.

With `CC1=C(c2nc3cc(Cl)ccc3n2C)C(c2ccc(Cl)c(Cl)c2)n2nccc2N1` (stereo not drawn), the IC50 in [1] amounted to 68 nM.

The compound `CC1=C(c2nc3cc(C#N)ccc3n2C)C(c2ccc(Cl)c(Cl)c2)n2nccc2N1` (stereo not drawn) showed an IC50 in data set [1] of 220 nM.

As for `CC1=C(c2nc3ccccc3n2C)C(c2ccc(Cl)c(Cl)c2)n2nccc2N1` (stereo not drawn), the IC50 in data set [1] stood at 75 nM.

Consider `CC(=O)Nc1ccc2c(c1)nc(C1=C(C)Nc3ccnn3C1c1ccc(Cl)c(Cl)c1)n2C` (stereo not drawn), for which the IC50 in data set [1] was above 1000 nM. The inhibition in data set [11] amounted to 8%.

For the compound `COCC1=C(c2nc3cc(F)ccc3n2C)C(c2ccc(Cl)c(Cl)c2)n2nccc2N1` (stereo not drawn), in [1], the IC50 amounted to 30 nM. Further, the inhibition at 10 µM in data set [2] was determined as 47%. The results for the inhibition in data set [3] and in data set [12] were 27% and 13%, respectively. For the same compound, the bioavailability in [4] was 37%. The half-life in [5] is 1.5 h. In addition, in [6], the clearance amounted to 42 mL/min/kg. The Vd in data set [7] is 2.1 L/kg. The Selectivity ratio in [8], in [9] and in data set [10] was above 200 throughout. The Activity in [13] is above 20%. For the same compound, the outcome in data set [14] was inactive.

On to `CC1=C(c2ncc(-c3ccccc3)o2)C(c2ccc(Cl)c(Cl)c2)n2nccc2N1` (stereo not drawn), for which, in data set [1], the IC50 is above 1000 nM. Further, the inhibition in data set [11] came to 25%.

In data set [1], `CC1=C(c2nc3ccc(C)cc3n2C)C(c2ccc(Cl)c(Cl)c2)n2nccc2N1` (stereo not drawn) displayed an IC50 of 980 nM.

For orientation: IC50 means the concentration that gives 50% inhibition. Usually inhibition stands for the drop in the measured response relative to a control, in per cent. In general, bioavailability refers to the share of a dose that reaches the circulation, judged against a reference dose that is usually intravenous. Read a low bioavailability as little systemic uptake. As a reminder, the clearance is a measure of how efficiently the substance is removed, as volume per time. Low readings indicate a low capacity for elimination, high ones a high capacity for elimination.
